The record followed here is article PMC6002953 (ACS chemical neuroscience, 2017).

One test concerns the target T1, human OX1 receptor (Homo sapiens, UniProt O43613).
T1 sequence (O43613 1-425): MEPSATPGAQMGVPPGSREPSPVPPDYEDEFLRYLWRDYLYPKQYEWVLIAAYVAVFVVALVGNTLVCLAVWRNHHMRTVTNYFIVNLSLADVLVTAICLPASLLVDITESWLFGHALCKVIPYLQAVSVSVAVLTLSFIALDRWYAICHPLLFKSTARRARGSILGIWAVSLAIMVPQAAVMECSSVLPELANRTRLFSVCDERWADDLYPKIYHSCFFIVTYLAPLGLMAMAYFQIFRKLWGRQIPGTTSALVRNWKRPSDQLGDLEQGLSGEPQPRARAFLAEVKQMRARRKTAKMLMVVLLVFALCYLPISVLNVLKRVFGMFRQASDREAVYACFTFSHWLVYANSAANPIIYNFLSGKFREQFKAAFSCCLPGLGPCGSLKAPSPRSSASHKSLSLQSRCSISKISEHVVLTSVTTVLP
As to the kind of experiment: Calcium mobilization Ke assay, OX1. Type of test: cell-based. The note with it: for OX2/OX1: ratio of Ke values OX2/OX1.

For another test, the target named is T2, human OX2 receptor (Homo sapiens, UniProt O43614).
T2 sequence (O43614 1-444): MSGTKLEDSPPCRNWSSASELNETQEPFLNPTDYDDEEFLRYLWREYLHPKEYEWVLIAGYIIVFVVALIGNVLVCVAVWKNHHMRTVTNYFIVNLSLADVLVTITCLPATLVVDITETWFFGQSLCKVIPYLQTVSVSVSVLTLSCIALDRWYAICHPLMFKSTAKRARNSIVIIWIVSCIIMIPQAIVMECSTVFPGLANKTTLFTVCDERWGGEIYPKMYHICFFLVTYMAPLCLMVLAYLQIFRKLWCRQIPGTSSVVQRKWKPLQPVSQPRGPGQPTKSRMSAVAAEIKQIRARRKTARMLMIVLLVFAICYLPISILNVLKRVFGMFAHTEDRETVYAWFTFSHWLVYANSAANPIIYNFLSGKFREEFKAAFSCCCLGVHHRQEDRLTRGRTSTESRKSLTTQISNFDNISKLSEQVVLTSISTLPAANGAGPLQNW
Nature of the test: Calcium mobilization Ke assay, OX2. As to conditions: for inhibition at 10 µM: read-out: Ke (OX2, nM) column: inhibition at 10 μM final concentration. Type of test: cell-based.

The mark [1] stands for this setting: Ke (OX1, nM), compound appeared insurmountable during standard assay procedure, incubation increased to 1 hour.

The structures appear in SMILES notation. Like-named read-outs stand apart in the source and are kept apart here. Bounds are passed on as bounds.

Take `CCCOc1cc2c(cc1OC)CCN(CC(=O)NCc1ccccc1)C2Cc1ccc2ccccc2c1` (centres unmarked) [Compound 12a, N-Benzyl-2-[6-methoxy-1-(naphthalen-2-ylmethyl)-7-propoxy-1,2,3,4-tetrahydroisoquinolin-2-yl]acetamide]: on human OX1 receptor, the Kd was found to be 121 ± 35 nM and the OX2/OX1 is above 82.6. The inhibition at 10 µM on human OX2 receptor was below 50%.
On the same counts, the results for `CCCOc1cc2c(cc1OC)CCN(CC(=O)NCc1ccccc1)C2Cc1ccc(C)c(C)c1` (centres unmarked) [Compound 12b, N-Benzyl-2-{1-[(3,4-dimethylphenyl)methyl]-6-methoxy-7-propoxy-1,2,3,4-tetrahydroisoquinolin-2-yl}acetamide] are 28.8 ± 4.4 nM, above 347 and below 50%.
On the same counts, the results for `CCCOc1cc2c(cc1OC)CCN(CC(=O)NCc1ccccc1)C2Cc1ccc(C(C)C)cc1` (centres unmarked) [Compound 12c, N-Benzyl-2-(6-methoxy-1-{[4-(propan-2-yl)phenyl]methyl}-7-propoxy-1,2,3,4-tetrahydroisoquinolin-2-yl)acetamide] are 141 ± 42 nM, above 70.9 and below 50%.
With `CCCOc1cc2c(cc1OC)CCN(CC(=O)NCc1ccccc1)C2Cc1ccc(N(C)C)cc1` (centres unmarked) [Compound 12d, N-Benzyl-2-(1-{[4-(dimethylamino)phenyl]methyl}-6-methoxy-7-propoxy-1,2,3,4-tetrahydroisoquinolin-2-yl)acetamide], on human OX1 receptor, the Kd came out at 173 ± 5 nM and the OX2/OX1 is above 58. Further, on human OX2 receptor, the Kd is above 10000 nM.
For `CCCOc1cc2c(cc1OC)CCN(CC(=O)NCc1ccccc1)C2Cc1cccc(N(C)C)c1` (centres unmarked) [Compound 12f, N-Benzyl-2-(1-{[3-(dimethylamino)phenyl]methyl}-6-methoxy-7-propoxy-1,2,3,4-tetrahydroisoquinolin-2-yl)acetamide], at human OX1 receptor, the Kd is 20.6 ± 2.8 nM and the OX2/OX1 is above 485. Also, the inhibition at 10 µM on human OX2 receptor is below 50%.
Take `CCCOc1cc2c(cc1OC)CCN(CC(=O)NCc1ccccc1)C2Cc1ccc(OCc2ccccn2)c(OC)c1` (centres unmarked) [Compound 12g, N-Benzyl-2-(6-methoxy-1-{[3-methoxy-4-(pyridin-2-ylmethoxy)phenyl]methyl}-7-propoxy-1,2,3,4-tetrahydroisoquinolin-2-yl)acetamide]: the Kd was 96.4 ± 34 nM on human OX1 receptor and above 10000 nM on human OX2 receptor. The “selectivity over OX2” value on human OX1 receptor (OX1 over OX2, calcium mobilization assays) is on record as above 100 fold. Also, at human OX1 receptor, the OX2/OX1 was above 104.
Turning to `COc1cc2c(cc1OCC(F)(F)F)C(Cc1ccc3ccccc3c1)N(CC(=O)NCc1cccnc1)CC2` (centres unmarked) [Compound 15a, 2-[6-Methoxy-1-(naphthalen-2-ylmethyl)-7-(2,2,2-trifluoroethoxy)-1,2,3,4-tetrahydroisoquinolin-2-yl]-N-(pyridin-3-ylmethyl)acetamide], at human OX1 receptor, the Kd turned out to be 29.5 ± 2.2 nM and the OX2/OX1 was 59. Moreover, on human OX2 receptor, the Kd stood at 1750 ± 230 nM.
On the same counts, the results for `COc1cc2c(cc1OCC(F)(F)F)C(Cc1ccc(C)c(C)c1)N(CC(=O)NCc1cccnc1)CC2` (centres unmarked) [Compound 15b, 2-{1-[(3,4-Dimethylphenyl)methyl]-6-methoxy-7-(2,2,2-trifluoroethoxy)-1,2,3,4-tetrahydroisoquinolin-2-yl}-N-(pyridin-3-ylmethyl)acetamide] are 20.4 ± 2.9 nM, 67 and 1360 ± 150 nM.
For the molecule `COc1cc2c(cc1OCC(F)(F)F)C(Cc1ccccn1)N(CC(=O)NCc1ccccc1)CC2` (centres unmarked) [Compound 19a, N-Benzyl-2-[6-methoxy-1-(pyridin-2-ylmethyl)-7-(2,2,2-trifluoroethoxy)-1,2,3,4-tetrahydroisoquinolin-2-yl]acetamide], the dissociation constant Kd on human OX1 receptor (setting [1]) came out at 884 ± 70 nM. Further, at human OX1 receptor, the OX2/OX1 was above 11. For the same molecule, the inhibition at 10 µM on human OX2 receptor was below 50%.
Consider `COc1cc2c(cc1OCC(F)(F)F)C(Cc1cccnc1)N(CC(=O)NCc1ccccc1)CC2` (centres unmarked) [Compound 19b, N-Benzyl-2-[6-methoxy-1-(pyridin-3-ylmethyl)-7-(2,2,2-trifluoroethoxy)-1,2,3,4-tetrahydroisoquinolin-2-yl]acetamide], for which the Kd on human OX1 receptor (setting [1]) is above 10000 nM. Also, the inhibition at 10 µM on human OX2 receptor was below 50%.
For `COc1cc2c(cc1OCC(F)(F)F)C(Cc1ccncc1)N(CC(=O)NCc1ccccc1)CC2` (centres unmarked) [Compound 19c, N-Benzyl-2-[6-methoxy-1-(pyridin-4-ylmethyl)-7-(2,2,2-trifluoroethoxy)-1,2,3,4-tetrahydroisoquinolin-2-yl]acetamide], the Kd on human OX1 receptor (setting [1]) was found to be 1860 nM. Besides, at human OX1 receptor, the OX2/OX1 is reported as above 5.4. Also, the inhibition at 10 µM at human OX2 receptor was below 50%.
For the molecule `COc1cc(CC2c3cc(OS(C)(=O)=O)c(OC)cc3CCN2CC(=O)NCc2ccccc2)ccc1OCc1ccccc1` (centres unmarked) [Compound 25a, 2-[(Benzylcarbamoyl)methyl]-1-{[4-(benzyloxy)-3-methoxyphenyl]methyl}-6-methoxy-1,2,3,4-tetrahydroisoquinolin-7-yl methanesulfonate], at human OX1 receptor, the Kd turned out to be 43 ± 18 nM and the OX2/OX1 is recorded as above 232. Further, the inhibition at 10 µM at human OX2 receptor was below 50%.
`CCCCOc1ccc(CC2c3cc(OS(C)(=O)=O)c(OC)cc3CCN2CC(=O)NCc2ccccc2)cc1OC` (centres unmarked) [Compound 25b, 2-[(Benzylcarbamoyl)methyl]-1-[(4-butoxy-3-methoxyphenyl)methyl]-6-methoxy-1,2,3,4-tetrahydroisoquinolin-7-yl methanesulfonate]: at human OX1 receptor, the Kd is 5.24 ± 1 nM and the OX2/OX1 turned out to be 229. The equilibrium dissociation constant (Kd) on human OX2 receptor was determined as 1200 nM.
For the molecule `COc1cc2c(cc1N)C(Cc1ccc(OC)c(OC)c1)N(CC(=O)NCc1ccccc1)CC2` (centres unmarked) [Compound 33, 2-{7-Amino-1-[(3,4-dimethoxyphenyl)methyl]-6-methoxy-1,2,3,4-tetrahydroisoquinolin-2-yl}-N-benzylacetamide], the figures for the Kd at human OX1 receptor and at human OX2 receptor were 494 ± 32 nM and above 10000 nM, respectively. Moreover, at human OX1 receptor, the OX2/OX1 is on record as above 20.
Take `COc1ccc(CC2c3cc(N(C)C)c(OC)cc3CCN2CC(=O)NCc2ccccc2)cc1OC` (centres unmarked) [Compound 34a, N-Benzyl-2-{1-[(3,4-dimethoxyphenyl)methyl]-7-(dimethylamino)-6-methoxy-1,2,3,4-tetrahydroisoquinolin-2-yl}acetamide]: on human OX1 receptor, the Kd came to 31.2 ± 3.3 nM and the OX2/OX1 is given as above 321. The Kd on human OX2 receptor is above 10000 nM.
As for `COc1cc2c(cc1NCc1ccccc1)C(Cc1ccc(OC)c(OC)c1)N(CC(=O)NCc1ccccc1)CC2` (centres unmarked) [Compound 34b, N-Benzyl-2-[7-(benzylamino)-1-[(3,4-dimethoxyphenyl)methyl]-6-methoxy-1,2,3,4-tetrahydroisoquinolin-2-yl]acetamide], on human OX1 receptor, the Kd was determined as 352 ± 34 nM and the OX2/OX1 is above 28. For the same molecule, at human OX2 receptor, the inhibition at 10 µM is below 35%.
For the molecule `COc1cc2c(cc1NC(C)=O)C(Cc1ccc(OC)c(OC)c1)N(CC(=O)NCc1ccccc1)CC2` (centres unmarked) [Compound 34c, N-Benzyl-2-{1-[(3,4-dimethoxyphenyl)methyl]-7-acetamido-6-methoxy-1,2,3,4-tetrahydroisoquinolin-2-yl}acetamide], at human OX1 receptor, the Kd worked out at 116 ± 44 nM and the OX2/OX1 is on record as above 86. Besides, on human OX2 receptor, the Kd is above 10000 nM.
`COc1cc2c(cc1NS(C)(=O)=O)C(Cc1ccc(OC)c(OC)c1)N(CC(=O)NCc1ccccc1)CC2` (centres unmarked) [Compound 34d, N-Benzyl-2-{1-[(3,4-dimethoxyphenyl)methyl]-7-methanesulfonamido-6-methoxy-1,2,3,4-tetrahydroisoquinolin-2-yl}acetamide]: on human OX1 receptor, the Kd is 128 ± 13 nM and the OX2/OX1 was above 78. Further, the Kd at human OX2 receptor is above 10000 nM.
On the same counts, the results for `CCCC(=O)Nc1cc2c(cc1OC)CCN(CC(=O)NCc1ccccc1)C2Cc1ccc(OC)c(OC)c1` (centres unmarked) [Compound 34e, N-{2-[(Benzylcarbamoyl)methyl]-1-[(3,4-dimethoxyphenyl)methyl]-6-methoxy-1,2,3,4-tetrahydroisoquinolin-7-yl}butanamide] are 689 ± 73 nM, above 14.5 and above 10000 nM.
Turning to `COC(=O)Nc1cc(CC2c3cc(NC(=O)OC)c(OC)cc3CCN2CC(=O)NCc2ccccc2)ccc1OC` (centres unmarked) [Compound 38, Methyl N-{2-[(Benzylcarbamoyl)methyl]-6-methoxy-1-({4-methoxy-3-[(methoxycarbonyl)amino]phenyl}methyl)-1,2,3,4-tetrahydroisoquinolin-7-yl}carbamate], the Kd on human OX1 receptor is above 10000 nM; on human OX2 receptor, 592 ± 170 nM.
As for `COc1ccc(CC2c3cc(N(C)C)c(OC)cc3CCN2CC(=O)NCc2ccccc2)cc1N(C)C` (centres unmarked) [Compound 39, N-Benzyl-2-[7-(dimethylamino)-1-{[3-(dimethylamino)-4-methoxyphenyl]methyl}-6-methoxy-1,2,3,4-tetrahydroisoquinolin-2-yl]acetamide], at human OX1 receptor, the Kd is 7.6 ± 2.8 nM and the OX2/OX1 is 113. In addition, the Kd on human OX2 receptor is 857 ± 220 nM.
